US20240158446A1, “CYCLIC COMPOUND HAVING SELECTIVE INHIBITORY ACTION ON KRAS OVER HRAS AND NRAS” (CHUGAI SEIYAKU KABUSHIKI KAISHA, priority 2021, published 2024)

Tests used:
[1] = biological target: GDP-bound KRAS wild-type protein (Homo sapiens, UniProt P01116); assay: Binding to KRAS by surface plasmon resonance (SPR), Single Cycle Kinetics; settings: SPR Single Cycle Kinetics, GDP-bound KRAS wild-type protein, 1:1 binding model; read-out: KRAS KD
[2] = biological target: GDP-bound NRAS wild-type protein (Homo sapiens, UniProt P01111); assay: Binding to NRAS by surface plasmon resonance (SPR), Single Cycle Kinetics; settings: SPR, GDP-bound NRAS wild-type protein vs GDP-bound KRAS wild-type protein
[3] = biological target: GDP-bound HRAS wild-type protein (Homo sapiens, UniProt P01112); assay: Binding to HRAS by surface plasmon resonance (SPR), Single Cycle Kinetics; settings: SPR, GDP-bound HRAS wild-type protein vs GDP-bound KRAS wild-type protein
GDP-bound HRAS wild-type protein, sequence (P01112 whole entry): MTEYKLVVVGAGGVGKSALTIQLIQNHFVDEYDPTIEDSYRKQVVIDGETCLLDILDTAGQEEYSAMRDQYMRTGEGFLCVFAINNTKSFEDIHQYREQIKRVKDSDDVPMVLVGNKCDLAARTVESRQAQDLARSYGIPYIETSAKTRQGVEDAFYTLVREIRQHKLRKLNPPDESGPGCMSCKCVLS

GDP-bound NRAS wild-type protein, sequence (P01111 whole entry): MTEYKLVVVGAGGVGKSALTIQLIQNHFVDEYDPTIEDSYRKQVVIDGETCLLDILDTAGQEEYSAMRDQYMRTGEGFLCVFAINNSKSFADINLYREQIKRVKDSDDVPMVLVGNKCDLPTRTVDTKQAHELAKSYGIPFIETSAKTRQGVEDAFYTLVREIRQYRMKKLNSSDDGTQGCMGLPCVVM
GDP-bound KRAS wild-type protein, sequence (P01116 whole entry): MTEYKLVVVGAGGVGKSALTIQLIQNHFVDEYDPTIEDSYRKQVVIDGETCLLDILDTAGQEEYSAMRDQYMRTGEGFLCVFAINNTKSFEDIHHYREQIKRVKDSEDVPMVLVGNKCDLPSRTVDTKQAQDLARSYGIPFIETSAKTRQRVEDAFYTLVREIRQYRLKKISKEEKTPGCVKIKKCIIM

Row | Compound | Kd [1] [nM] | NRAS/KRAS (ratio of KD value with respect to NRAS to KD value with respect to KRAS) [2] | HRAS/KRAS (ratio of KD value with respect to HRAS to KD value with respect to KRAS) [3]
1 | C#CC[C@H]1C(=O)N[C@@H]([C@@H](C)CC)C(=O)N(C)CC(=O)N(C)[C@H]2CCCCN(C2=O)[C@@H](Cc2ccc(C(F)(F)F)cc2)C(=O)N(C)CC(=O)N[C@@H](CCc2cc(F)c(C(F)(F)F)c(F)c2)C(=O)N2C[C@H](OCC)C[C@H]2C(=O)NC2(CCC2)C(=O)N(C)[C@@H](C2CCCC2)C(=O)N(C)[C@H](C(=O)N2CCOCC2)CC(=O)N1C [PP0711] | 0.025 | C (A compound having a KD ratio of 0.1 or more and less than 3 is denoted as C) | B (a compound having 3 or more and less than 10 is denoted as B)
2 | CCO[C@@H]1C[C@H]2C(=O)NC3(CCC3)C(=O)N(C)[C@@H](C3CCCC3)C(=O)N(C)[C@H](C(=O)N3CCOCC3)CC(=O)N(C)[C@@H](CC3CC3)C(=O)N[C@@H]([C@@H](C)CC)C(=O)N(C)CC(=O)N(C)[C@H]3CCCCN(C3=O)[C@@H](Cc3ccc(C(F)(F)F)cc3)C(=O)N(C)CC(=O)N[C@@H](CCc3cc(F)c(C(F)(F)F)c(F)c3)C(=O)N2C1 [PP0712] | 0.042 | C (A compound having a KD ratio of 0.1 or more and less than 3 is denoted as C) | C (A compound having a KD ratio of 0.1 or more and less than 3 is denoted as C)
3 | CCO[C@@H]1C[C@H]2C(=O)NC3(CCC3)C(=O)N(C)[C@@H](C3CCCC3)C(=O)N(C)[C@H](C(=O)N3CCOCC3)CC(=O)N(C)[C@@H](CC3CCC3)C(=O)N[C@@H]([C@@H](C)CC)C(=O)N(C)CC(=O)N(C)[C@H]3CCCCN(C3=O)[C@@H](Cc3ccc(C(F)(F)F)cc3)C(=O)N(C)CC(=O)N[C@@H](CCc3cc(F)c(C(F)(F)F)c(F)c3)C(=O)N2C1 [PP0713] | 0.033 | C (A compound having a KD ratio of 0.1 or more and less than 3 is denoted as C) | B (a compound having 3 or more and less than 10 is denoted as B)
4 | CCO[C@@H]1C[C@H]2C(=O)NC3(CCC3)C(=O)N(C)[C@@H](C3CCCC3)C(=O)N(C)[C@H](C(=O)N3CCOCC3)CC(=O)N(C)[C@@H](CC(C)(C)C)C(=O)N[C@@H]([C@@H](C)CC)C(=O)N(C)CC(=O)N(C)[C@H]3CCCCN(C3=O)[C@@H](Cc3ccc(C(F)(F)F)cc3)C(=O)N(C)CC(=O)N[C@@H](CCc3cc(F)c(C(F)(F)F)c(F)c3)C(=O)N2C1 [PP0714] | 0.047 | C (A compound having a KD ratio of 0.1 or more and less than 3 is denoted as C) | B (a compound having 3 or more and less than 10 is denoted as B)
5 | CCO[C@@H]1C[C@H]2C(=O)NC3(CCC3)C(=O)N(C)[C@@H](C3CCCC3)C(=O)N(C)[C@H](C(=O)N3CCOCC3)CC(=O)N(C)[C@@H](CC3CCCC3)C(=O)N[C@@H]([C@@H](C)CC)C(=O)N(C)CC(=O)N(C)[C@H]3CCCCN(C3=O)[C@@H](Cc3ccc(C(F)(F)F)cc3)C(=O)N(C)CC(=O)N[C@@H](CCc3cc(F)c(C(F)(F)F)c(F)c3)C(=O)N2C1 [PP0715] | 0.035 | C (A compound having a KD ratio of 0.1 or more and less than 3 is denoted as C) | B (a compound having 3 or more and less than 10 is denoted as B)
6 | CCO[C@@H]1C[C@H]2C(=O)NC3(CCC3)C(=O)N(C)[C@@H](C3CCCC3)C(=O)N(C)[C@H](C(=O)N3CCOCC3)CC(=O)N(C)[C@@H](CC3CCCCC3)C(=O)N[C@@H]([C@@H](C)CC)C(=O)N(C)CC(=O)N(C)[C@H]3CCCCN(C3=O)[C@@H](Cc3ccc(C(F)(F)F)cc3)C(=O)N(C)CC(=O)N[C@@H](CCc3cc(F)c(C(F)(F)F)c(F)c3)C(=O)N2C1 [PP0716] | 0.055 | C (A compound having a KD ratio of 0.1 or more and less than 3 is denoted as C) | B (a compound having 3 or more and less than 10 is denoted as B)
7 | CCO[C@@H]1C[C@H]2C(=O)NC3(CCC3)C(=O)N(C)[C@@H](C3CCCC3)C(=O)N(C)[C@H](C(=O)N3CCOCC3)CC(=O)N(C)[C@@H](COC)C(=O)N[C@@H]([C@@H](C)CC)C(=O)N(C)CC(=O)N(C)[C@H]3CCCCN(C3=O)[C@@H](Cc3ccc(C(F)(F)F)cc3)C(=O)N(C)CC(=O)N[C@@H](CCc3cc(F)c(C(F)(F)F)c(F)c3)C(=O)N2C1 [PP0719] | 0.02 | C (A compound having a KD ratio of 0.1 or more and less than 3 is denoted as C) | B (a compound having 3 or more and less than 10 is denoted as B)
8 | CCO[C@@H]1C[C@H]2C(=O)NC3(CCC3)C(=O)N(C)[C@@H](C3CCCC3)C(=O)N(C)[C@H](C(=O)N3CCOCC3)CC(=O)N(C)[C@@H](CCOC)C(=O)N[C@@H]([C@@H](C)CC)C(=O)N(C)CC(=O)N(C)[C@H]3CCCCN(C3=O)[C@@H](Cc3ccc(C(F)(F)F)cc3)C(=O)N(C)CC(=O)N[C@@H](CCc3cc(F)c(C(F)(F)F)c(F)c3)C(=O)N2C1 [PP0720] | 0.036 | C (A compound having a KD ratio of 0.1 or more and less than 3 is denoted as C) | B (a compound having 3 or more and less than 10 is denoted as B)
9 | CCO[C@@H]1C[C@H]2C(=O)NC3(CCC3)C(=O)N(C)[C@@H](C3CCCC3)C(=O)N(C)[C@H](C(=O)N3CCOCC3)CC(=O)N(C)C[C@@H](C)C(=O)N[C@@H]([C@@H](C)CC)C(=O)N(C)CC(=O)N(C)[C@H]3CCCCN(C3=O)[C@@H](Cc3ccc(C(F)(F)F)cc3)C(=O)N(C)CC(=O)N[C@@H](CCc3cc(F)c(C(F)(F)F)c(F)c3)C(=O)N2C1 [PP0721] | 11 | B (a compound having 3 or more and less than 10 is denoted as B) | B (a compound having 3 or more and less than 10 is denoted as B)
10 | CCO[C@@H]1C[C@H]2C(=O)NC3(CC(C)(C)C3)C(=O)N(C)[C@@H](C3CCCC3)C(=O)N(C)[C@H](C(=O)N(C)C)CC(=O)N(C)[C@@H](C)C(=O)N[C@@H]([C@@H](C)CC)C(=O)N(C)CC(=O)N(C)[C@H]3CCCCCN(C3=O)[C@@H](Cc3ccc(C(F)(F)F)cc3)C(=O)N(C)CC(=O)N[C@@H](CCc3cc(F)c(C(F)(F)F)c(F)c3)C(=O)N2C1 [PP0723] | 0.47 | B (a compound having 3 or more and less than 10 is denoted as B) | B (a compound having 3 or more and less than 10 is denoted as B)
11 | CCO[C@@H]1C[C@H]2C(=O)NC3(CCC(F)(F)CC3)C(=O)N(C)[C@@H](C3CCCC3)C(=O)N(C)[C@H](C(=O)N(C)C)CC(=O)N(C)[C@@H](C)C(=O)N[C@@H]([C@@H](C)CC)C(=O)N(C)CC(=O)N(C)[C@H]3CCCCCN(C3=O)[C@@H](Cc3ccc(C(F)(F)F)cc3)C(=O)N(C)CC(=O)N[C@@H](CCc3cc(F)c(C(F)(F)F)c(F)c3)C(=O)N2C1 [PP0725] | 5 | B (a compound having 3 or more and less than 10 is denoted as B) | B (a compound having 3 or more and less than 10 is denoted as B)
12 | CCO[C@@H]1C[C@H]2C(=O)NC3(CC(C)(C)C3)C(=O)N(C)[C@@H](C3CCCC3)C(=O)N(C)[C@H](C(=O)N3CCOCC3)CC(=O)N(C)[C@@H](CC(C)C)C(=O)N[C@@H]([C@@H](C)CC)C(=O)N(C)CC(=O)N(C)[C@H]3CCCCCN(C3=O)[C@@H](Cc3ccc(C(F)(F)F)cc3)C(=O)N(C)CC(=O)N[C@@H](CCc3cc(F)c(C(F)(F)F)c(F)c3)C(=O)N2C1 [PP0726] | 1.1 | B (a compound having 3 or more and less than 10 is denoted as B) | B (a compound having 3 or more and less than 10 is denoted as B)
13 | CCO[C@@H]1C[C@H]2C(=O)NC3(CC=CC3)C(=O)N(C)[C@@H](C3CCCC3)C(=O)N(C)[C@H](C(=O)N3CCOCC3)CC(=O)N(C)[C@@H](CC(C)C)C(=O)N[C@@H]([C@@H](C)CC)C(=O)N(C)CC(=O)N(C)[C@H]3CCCCCN(C3=O)[C@@H](Cc3ccc(C(F)(F)F)cc3)C(=O)N(C)CC(=O)N[C@@H](CCc3cc(F)c(C(F)(F)F)c(F)c3)C(=O)N2C1 [PP0727] | 1.3 | B (a compound having 3 or more and less than 10 is denoted as B) | B (a compound having 3 or more and less than 10 is denoted as B)
14 | CCO[C@@H]1C[C@H]2C(=O)NC3(CCC(F)(F)CC3)C(=O)N(C)[C@@H](C3CCCC3)C(=O)N(C)[C@H](C(=O)N3CCOCC3)CC(=O)N(C)[C@@H](CC(C)C)C(=O)N[C@@H]([C@@H](C)CC)C(=O)N(C)CC(=O)N(C)[C@H]3CCCCCN(C3=O)[C@@H](Cc3ccc(C(F)(F)F)cc3)C(=O)N(C)CC(=O)N[C@@H](CCc3cc(F)c(C(F)(F)F)c(F)c3)C(=O)N2C1 [PP0728] | 11 | B (a compound having 3 or more and less than 10 is denoted as B) | B (a compound having 3 or more and less than 10 is denoted as B)
15 | CCO[C@@H]1C[C@H]2C(=O)NC3(CCC3)C(=O)N(C)[C@@H](C3CCCC3)C(=O)N(C)[C@H](C(=O)N(C)C)CC(=O)N(C)[C@@H](C)C(=O)N[C@@H]([C@H](C)CC)C(=O)N(C)CC(=O)N(C)[C@H]3CCCCN(C3=O)[C@@H](Cc3ccc(C(F)(F)F)cc3)C(=O)N(C)CC(=O)N[C@@H](CCc3cc(F)c(C(F)(F)F)c(F)c3)C(=O)N2C1 [PP0730] | 0.094 | C (A compound having a KD ratio of 0.1 or more and less than 3 is denoted as C) | C (A compound having a KD ratio of 0.1 or more and less than 3 is denoted as C)
